Reference: the NIST ThermoML archive (doi:10.1021/je900048r)
Values joined by “and” are separate entries in the source; they are usually repeats but may differ in a detail not shown here. Identical values can stand only once. ± gives the expanded uncertainty stated by the source.

Columns and labels:
[1] = Liquid, Other PVT measurement
[2] = xn = mol fraction of the nth substance listed; settings: Liquid, Other PVT measurement, x2 = 0

## CCCCn1cc[n+](C)c1.F[B-](F)(F)F [1-butyl-3-methylimidazolium tetrafluoroborate]
[1]; 293.15 K, 100 kPa
  mass density: 1198 ± 12 kg/m3
[1]; 313.15 K, 100 kPa
  mass density: 1183 ± 12 kg/m3
[1]; 313.15 K, 200 kPa
  mass density: 1185 ± 12 kg/m3
[1]; 313.15 K, 600 kPa
  mass density: 1186 ± 12 kg/m3
[1]; 313.15 K, 1000 kPa
  mass density: 1186 ± 12 kg/m3
[1]; 313.15 K, 1400 kPa
  mass density: 1186 ± 12 kg/m3
[1]; 313.15 K, 1800 kPa
  mass density: 1187 ± 12 kg/m3
[1]; 313.15 K, 2000 kPa
  mass density: 1186.93 ± 12 kg/m3 and 1187 ± 12 kg/m3
[1]; 353.15 K, 200 kPa
  mass density: 1159 ± 12 kg/m3
[1]; 353.15 K, 600 kPa
  mass density: 1160 ± 12 kg/m3
[1]; 353.15 K, 1000 kPa
  mass density: 1160 ± 12 kg/m3
[1]; 353.15 K, 1400 kPa
  mass density: 1160 ± 12 kg/m3
[1]; 353.15 K, 1800 kPa
  mass density: 1161 ± 12 kg/m3
[1]; 353.15 K, 2000 kPa
  mass density: 1160.82 ± 12 kg/m3 and 1161 ± 12 kg/m3
[1]; 393.15 K, 600 kPa
  mass density: 1135 ± 11 kg/m3
[1]; 393.15 K, 1000 kPa
  mass density: 1135 ± 11 kg/m3
[1]; 393.15 K, 1400 kPa
  mass density: 1135 ± 11 kg/m3
[1]; 393.15 K, 1800 kPa
  mass density: 1136 ± 11 kg/m3
[1]; 393.15 K, 2000 kPa
  mass density: 1135.92 ± 11 kg/m3 and 1136 ± 11 kg/m3
[1]; 433.15 K, 1000 kPa
  mass density: 1112 ± 11 kg/m3
[1]; 433.15 K, 1400 kPa
  mass density: 1112 ± 11 kg/m3
[1]; 433.15 K, 1800 kPa
  mass density: 1113 ± 11 kg/m3
[1]; 433.15 K, 2000 kPa
  mass density: 1113 ± 11 kg/m3
[1]; 473.15 K, 1800 kPa
  mass density: 1086 ± 11 kg/m3
[1]; 473.15 K, 2000 kPa
  mass density: 1087 ± 11 kg/m3

## CC#N [acetonitrile]
[1]; 313.15 K, 200 kPa
  mass density: 755 ± 8 kg/m3
[1]; 313.15 K, 600 kPa
  mass density: 755 ± 8 kg/m3
[1]; 313.15 K, 1000 kPa
  mass density: 756 ± 8 kg/m3
[1]; 313.15 K, 1400 kPa
  mass density: 756 ± 8 kg/m3
[1]; 313.15 K, 1800 kPa
  mass density: 757 ± 8 kg/m3
[1]; 313.15 K, 2000 kPa
  mass density: 757 ± 8 kg/m3
[1]; 353.15 K, 200 kPa
  mass density: 710 ± 7 kg/m3
[1]; 353.15 K, 600 kPa
  mass density: 711 ± 7 kg/m3
[1]; 353.15 K, 1000 kPa
  mass density: 711 ± 7 kg/m3
[1]; 353.15 K, 1400 kPa
  mass density: 711 ± 7 kg/m3
[1]; 353.15 K, 1800 kPa
  mass density: 712 ± 7 kg/m3
[1]; 353.15 K, 2000 kPa
  mass density: 713 ± 7 kg/m3
[1]; 393.15 K, 600 kPa
  mass density: 664 ± 7 kg/m3
[1]; 393.15 K, 1000 kPa
  mass density: 664 ± 7 kg/m3
[1]; 393.15 K, 1400 kPa
  mass density: 665 ± 7 kg/m3
[1]; 393.15 K, 1800 kPa
  mass density: 666 ± 7 kg/m3
[1]; 393.15 K, 2000 kPa
  mass density: 666 ± 7 kg/m3
[1]; 433.15 K, 1000 kPa
  mass density: 611 ± 6 kg/m3
[1]; 433.15 K, 1400 kPa
  mass density: 612 ± 6 kg/m3
[1]; 433.15 K, 1800 kPa
  mass density: 614 ± 6 kg/m3
[1]; 433.15 K, 2000 kPa
  mass density: 614 ± 6 kg/m3
[1]; 473.15 K, 1800 kPa
  mass density: 550 ± 6 kg/m3
[1]; 473.15 K, 2000 kPa
  mass density: 552 ± 6 kg/m3

## CC#N [acetonitrile] + CCCCn1cc[n+](C)c1.F[B-](F)(F)F
[2]; 313.15 K, 200 kPa
  mass density: 755 ± 8 kg/m3
[2]; 313.15 K, 600 kPa
  mass density: 755 ± 8 kg/m3
[2]; 313.15 K, 1000 kPa
  mass density: 756 ± 8 kg/m3
[2]; 313.15 K, 1400 kPa
  mass density: 756 ± 8 kg/m3
[2]; 313.15 K, 1800 kPa
  mass density: 757 ± 8 kg/m3
[2]; 313.15 K, 2000 kPa
  mass density: 757 ± 8 kg/m3
[2]; 353.15 K, 200 kPa
  mass density: 710 ± 7 kg/m3
[2]; 353.15 K, 600 kPa
  mass density: 711 ± 7 kg/m3
[2]; 353.15 K, 1000 kPa
  mass density: 711 ± 7 kg/m3
[2]; 353.15 K, 1400 kPa
  mass density: 711 ± 7 kg/m3
[2]; 353.15 K, 1800 kPa
  mass density: 712 ± 7 kg/m3
[2]; 353.15 K, 2000 kPa
  mass density: 713 ± 7 kg/m3
[2]; 393.15 K, 600 kPa
  mass density: 664 ± 7 kg/m3
[2]; 393.15 K, 1000 kPa
  mass density: 664 ± 7 kg/m3
[2]; 393.15 K, 1400 kPa
  mass density: 665 ± 7 kg/m3
[2]; 393.15 K, 1800 kPa
  mass density: 666 ± 7 kg/m3
[2]; 393.15 K, 2000 kPa
  mass density: 666 ± 7 kg/m3
[2]; 433.15 K, 1000 kPa
  mass density: 611 ± 6 kg/m3
[2]; 433.15 K, 1400 kPa
  mass density: 612 ± 6 kg/m3
[2]; 433.15 K, 1800 kPa
  mass density: 614 ± 6 kg/m3
[2]; 433.15 K, 2000 kPa
  mass density: 614 ± 6 kg/m3
[2]; 473.15 K, 1800 kPa
  mass density: 550 ± 6 kg/m3
[2]; 473.15 K, 2000 kPa
  mass density: 552 ± 6 kg/m3
